Data taken from publication PMC10303846, “In vitro antiplasmodial activity and toxicological profile of extracts, fractions and chemical constituents of leaves and stem bark from Dacryodes edulis (Burseraceae)” (BMC Complementary Medicine and Therapies, 2023).
Values after ≈ are worked out from the molar mass of the structure shown. Read-outs that look alike come from different tables or passages of the source.

Assays:
[1] = test system: chloroquine-resistant (multidrug-resistant) PfDd2 (MRA-150) P. falciparum strain; assay: SYBR green I-based fluorescence P. falciparum growth inhibition assay, PfDd2; assay type: cell-based, Plasmodium falciparum; settings: for IC50: Plasmodium falciparum, read-out: IC50 ± SD PfDd2; for antiplasmodial activity class on PfDd2: class by IC50 criteria of b51, Dd2 strain only
Method: (§1) The chloroquine-sensitive Pf3D7-(MRA-102) and chloroquine-resistant PfDd2-(MRA-150) P. falciparum strains were maintained as previously described in fresh O^+ human red blood cells at 4% haematocrit in complete RPMI 1640 medium [500 mL RPMI 1640 (Gibco, UK) supplemented with 25 mM HEPES (Gibco, UK), […] (Gibco, USA), 1X hypoxanthine (Gibco, USA) and […] gentamicin (Gibco, China)] and incubating at 37 °C in a humidified atmosphere with 5% CO2. The medium was renewed daily to propagate the culture. Giemsa-stained thin blood smears were examined microscopically under immersion oil to monitor cell-cycle transition and parasitemia evolution. O^+ human red blood cells were obtained from a consent volunteer donor (Supplementary material).
(§2) Before each experiment, synchronized ring-stage parasite were obtained by 5% sorbitol (w/v) treatment with respect to Lambros and Vanderberg, 1979 [12]. It is crucial to note that, using cultures over mixed stage cultures can enable the test molecules to interact with all three stages (ring, trophozoite, and schizont) of the 48 h long life cycle of P. falciparum in culture.
(§3) A drug sensitivity assay was carried out in 96-well microtitration plates using a SYBR green I-based fluorescence assay. This assay is specifically based on the ability of SYBR green to give strong fluorescence only in the presence of parasite DNA during cell proliferation.
(§4) Shortly, sorbitol-synchronized ring stage parasites (hematocrit: 1%, parasitemia: 2%, 90 μl) under normal culture conditions were incubated in the presence of prediluted extracts, fractions, isolated compounds and reference drug (10 μL) followed by incubation at 37℃ for 72 h. After incubation, 100 μL of SYBR Green I buffer [6 μL of 10,000 × SYBR Green I (Invitrogen) + 600 μL of Red Blood Cells lysis buffer {Tris (25 mM; pH 7.5)} + 360 μL of EDTA (7.5 mM) + 19,2 μL of parasites lysis solution {saponin (0.012%; wt/vol)} and 28,8 μL of Triton X-100 (0.08%; vol/vol)}] was added to each well, mixed twice gently with a multichannel pipette and incubated in the dark at 37℃ for 1 h. Fluorescence was measured using a TECAN M 200 Microplate reader with excitation and emission at 485 and 538 nm, respectively. The fluorescence counts were plotted against the logarithm of the sample concentration and the 50% inhibitory concentration (IC50) was determined by analysis of dose–response curves using GraphPad Prism 5.0. Experiments were performed in duplicate.

[2] = Resazurin-based in vitro cytotoxicity assay; assay type: cell-based; settings: mouse
Method: The cytotoxicity profile of extracts, fractions and isolated compounds was assessed using the resazurin-based assay essentially as previously described against RAW 264.7 cells duly cultivated in complete Dulbecco′s Modified Eagle′s Medium (DMEM) that contain 13.5 g/L of DMEM (Sigma Aldrich), 10% fetal bovine serum (Sigma Aldrich), 0.2% sodium bicarbonate (w/v) (Sigma Aldrich) and 50 μg/mL of gentamicin (Sigma Aldrich). Globally, macrophages (Raw cells) were seeded into 96-well cell-culture flat-bottomed plates at a density of 10^4 cells in 100 μL of complete medium/well and placed in incubation for 24 h at 37℃, and 5% CO2 allowing cell adhesion. Following cell adhesion, ten microliters of each serially diluted test sample solution was added to assay plates and left in incubation for 48 h under the same experimental conditions. Growth control (1% DMSO-100% growth) and positive control wells (podophyllotoxin at 20 μM) were included in the experimental plates. Cell proliferation was checked by adding 10 μL of a stock solution of resazurin (0.15 mg/mL in sterile PBS) to each well followed by an additional incubation of 4 h in the same culture conditions. Fluorescence was then read using Tecan Infinite M200 fluorescence multiwell plate reader (Tecan) at an excitation/emission of 530/590 nm. The results were expressed as 50% cytotoxic concentrations (CC50) and selectivity indices (CC50 Mammalian cell/IC50 Pf3D7) were calculated for each test substance.

[3] = test system: chloroquine-sensitive Pf3D7 (MRA-102) P. falciparum strain; assay: SYBR green I-based fluorescence P. falciparum growth inhibition assay, Pf3D7; assay type: cell-based; settings: Plasmodium falciparum, read-out: IC50 ± SD Pf3D7
Method: as §1, §2, §3, §4

[4] = test system: P. falciparum 3D7 and Dd2 strains; assay: SYBR green antiplasmodial assay, results stated for both strains together; assay type: cell-based, Plasmodium falciparum; settings: for Resistance Index (RI): PfDd2 versus Pf3D7; for antiplasmodial activity class on both Pf3D7 and PfDd2: class by IC50 criteria of b51
From the text: The medium was renewed daily to propagate the culture. Giemsa-stained thin blood smears were examined microscopically under immersion oil to monitor cell-cycle transition and parasitemia evolution. O^+ human red blood cells were obtained from a consent volunteer donor (Supplementary material).
as §2, §3, §4

[5] = test system: chloroquine-resistant (Dd2) strain of P. falciparum; settings: Zofou and colleagues (2013) ref 9; cited from earlier work
[6] = SYBr Green based assay, 72 h, multidrug-resistant strain
[7] = SYBr Green based assay, 72 h, chloroquine-sensitive strain
[8] = Raw cells, 48 h, resazurin, read-out: CC50
[9] = reference drugs, unit nM printed with the name

Compound	IC50 [1, 6] [µg/mL]	CC50 at 48 h [2] [µg/mL]	IC50 [3, 7] [µg/mL]	other results
CCCCCCCCCCCCCCCCCCCCCCCC(=O)OCC(O)CO (centres unmarked) [compound 8, Glyceryl-1-tetracosanoate]	> 25	> 100	> 25	–
CCN(CC)CCCC(C)Nc1ccnc2cc(Cl)ccc12 (centres unmarked) [Chloroquine, reference compound]	–	–	–	IC50 [1]: 133 ± 0.16 nM; IC50 [3]: 4.36 ± 0.53 nM
CCOC(=O)c1cc(O)c(O)c(O)c1 [compound 10, Ethyl gallate]	2.86 ± 0.07	> 100	1.15 ± 0.1	Resistance Index (RI) [4]: 2.48; antiplasmodial activity class on both Pf3D7 and PfDd2 [4]: pronounced (IC50 ≤ 5 μg/mL: pronounced activity)
CC(=O)O[C@H]1CC[C@]2(C)[C@H]3CC=C4[C@@H]5CC(C)(C)CC[C@]5(C)CC[C@@]4(C)[C@]3(C)CC[C@H]2C1(C)C [compound 11, β-amyrin acetate]	> 25	> 100	> 25	–
CC(=O)OCC(Cc1ccccc1)NC(=O)C(Cc1ccccc1)NC(=O)c1ccccc1 (centres unmarked) [compound 9, Auranthiamide acetate]	> 25	> 100	> 25	–
COc1cc(O)c2c(=O)c3c(C)cc(O)cc3oc2c1 [compound 2, Griseoxanthone C]	–	–	–	IC50 ([1]; 72 h): > 25 µg/mL; CC50 at 48 h [2, 8]: > 100 µg/mL; IC50 ([3]; 72 h): > 25 µg/mL
COc1c(O)cc2c(=O)oc3c(OC)c(OC4OCC(O)C(OC(=O)c5cc(O)c(O)c(O)c5)C4O)cc4c(=O)oc1c2c34 [compound 5, 3,3″-di-O-methylellagic acid 4-O-(3″-galloyl)-β-D-xylopyranoside]	1.76 ± 0.14	> 100	1.86 ± 0.18	Resistance Index (RI) [4]: 1.12
CCCCCC(=O)Cc1cc(OC)cc(O)c1C(=O)Oc1cc(CCCCC)c(C(=O)O)c(OC)c1 [compound 7, Confluentic acid]	> 25	> 100	> 25	–
C/C(=C/CCC(C)C1CCC2(C)C3=CCC4C(C)(C)C(=O)CCC4(C)C3CCC12C)C(=O)O (centres unmarked) [compound 13, 3-oxo-lanosta-7,24-Z-dien-26-oid acid]	14.21 ± 0.11	–	> 25	antiplasmodial activity class on PfDd2 [1]: moderate (10 < IC50 ≤ 20 μg/mL: moderate activity); CC50 at 48 h ([2]; RAW 264.7 macrophage cells, Raw cells, 48 h, resazurin, read-out: CC50): > 100 µg/mL
CC1(C)CC[C@]2(C)CC[C@]3(C)C(=CC[C@@H]4[C@@]5(C)CC[C@H](O)C(C)(C)[C@@H]5CC[C@]43C)[C@@H]2C1 [compound 12, β-amyrin]	> 25	–	> 25	–
COc1cc2c(=O)oc3c(OC)c(O)cc4c(=O)oc(c1OC)c2c34 [compound 4, 3,3′,4-tri-O-methylellagic acid]	0.63 ± 0.27	> 100	> 25	–
COc1c(O)cc2c(=O)oc3c(OC)c(O)cc4c(=O)oc1c2c34 [compound 3, 3,3′-O-dimethylellagic acid]	1.36 ± 0.14	> 100	1.17 ± 0.04	Resistance Index (RI) [4]: 1.16; antiplasmodial activity class on both Pf3D7 and PfDd2 [4]: pronounced (IC50 ≤ 5 μg/mL: pronounced activity)
COC(=O)c1cc(O)c(O)c(O)c1 [DES4, methyl 3,4,5-trihydroxybenzoate]	–	–	–	IC50 Dd2 [5]: 0.56 µg/mL (≈ 3.04 µM)
O=C(O)c1ccc(O)c(O)c1 [compound 6, 3,4-dihydroxybenzoic acid]	–	–	–	IC50 ([1]; 72 h): 17.09 ± 0.06 µg/mL; antiplasmodial activity class on PfDd2 [1]: moderate (10 < IC50 ≤ 20 μg/mL: moderate activity); CC50 at 48 h [2, 8]: > 100 µg/mL; IC50 ([3]; 72 h): > 25 µg/mL
C[C@@H]1CC[C@H]2[C@@H](C)C(=O)O[C@@H]3O[C@@]4(C)CC[C@@H]1[C@]32OO4 [Artemisinin, reference compound]	–	–	–	IC50 [1, 9]: 18.9 ± 0.13 nM; IC50 [3, 9]: 14.66 ± 0.11 nM
